Experimental data: patent US9241972B2, “Use of Wnt agents to prevent hypoxic injury” (THE BOARD OF TRUSTEES OF THE LELAND STANFORD JUNIOR …, priority 2011, dated 2016)
“Also recorded” adds a separate entry of the source. Each block holds one molecule with its values, some of them ahead of it.

Columns and labels:
[1] = tested on: HIF-1; assay: HIF-1 / HRE luciferase reporter assay (and HIF-1α immunoblot) in AML12 hepatocytes; assay type: cell-based, mouse
Experimental: (§1) The differentiated non-transformed mouse hepatocyte cell line AML12 (ATCC Inc.) was cultured in Dulbecco's […] (DMEM)/F-12 media (1:1) supplemented with 10% fetal bovine serum (FBS), 1% penicillin-streptomycin antibiotics and 5 μg/ml insulin, 5 μg/ml transferrin, 5 ng/ml selenium as previously described (62). The human hepatocellular carcinoma cell lines Huh7 and HepG2 were grown in DMEM media containing 10% FBS and 1% penicillin-streptomycin antibiotics. Media was purchased from Hyclone (Logan, Utah). All other medium components were purchased from Invitrogen (Carlsbad, Calif.). Cultures were maintained at 37° C. in a hunified 5% CO2 atmosphere. For hypoxic conditions, cells were grown at 1% O2 in a custom-designed incubator (XVivo Hypoxia Chamber; BioSpherix) for 24 hrs.
Western Blot Analysis and Immunoprecipitation. […]
For the reporter assay, cells were seeded in a 24-well plate under triplicate conditions at 80% confluency. […] After 2 days, luciferase and galactosidase expression were measured using the Dual-Light Reporter Gene Assay (Applied Biosystems, Foster City, Calif.) according to the manufacturer's instructions. […]

[2] = tested on: β-catenin/TCF signaling; assay: β-catenin/TCF luciferase reporter assay in AML12 hepatocytes; assay type: cell-based
Experimental: as §1
Western Blot Analysis and Immunoprecipitation. Cells were treated with actinomycin D and TNFα, hydrogen peroxide (H2O2), hypoxia 1% for 24 hours or pre-treated with N-acetylcysteine (NAC), cobalt chloride (CoCl2), YC-1 (Alexis Biochemicals, San Diego, Calif.), Resveratrol or nicotinamide (NAM) as described in the figure legends. All other chemicals were purchased from Sigma Aldrich (Sigma Aldrich, St. Louis, Mo.). Total proteins (30 μg) were lysed with RIPA lysis buffer and separated by sodium dodecylsulfate-polyacrylamide gel electrophoresis. After transfer, the polyvinylidene diflouride membrane was blocked with 5% non-fat milk in Tris-buffered saline with 0.1% Tween-20 (TBST) and then incubated with primary antibodies at 4° C. overnight. After washing, the horseradish peroxidase-conjugated secondary antibodies were added for 30 minutes at room temperature. Antibody binding was visualized by enhanced chemiluminescence reagent (GE Healthcare BioSciences, Buckinghamshire, United Kingdom).
For the reporter assay, cells were seeded in a 24-well plate under triplicate conditions at 80% confluency. Cells were transfected the next day with plasmid pMegaTOPFLASH and pMegaFOPFLASH (β-catenin reporter construct containing LEF1/TCF binding sites) or 5×-HRE (hypoxia response element) and 1 μg of pEF1/Myc-His/LacZ plasmid using Lipofectamine 2000 (Invitrogen, Carlsbad, Calif.). Six hours after transfection, the media was replaced with DMEM/F12 media. 24 hours after transfection, cells were either pre-treated with drugs for one hour or incubated in hypoxia 1% for 24 hours as mentioned in the figure legends. After 2 days, luciferase and galactosidase expression were measured using the Dual-Light Reporter Gene Assay (Applied Biosystems, Foster City, Calif.) according to the manufacturer's instructions. Luciferase activity was normalized to β-galactosidase activity as an internal transfection control.

[3] = tested on: AML12 hepatocytes; assay: Intracellular ROS levels by DCF-DA flow cytometry; assay type: cell-based, mouse; conditions: one hour pre-treatment with NAC (2 mmol/L)
Experimental: as §1, with “hrs. The fluorescent probe, dichlorofluorescein diacetate (DCF-DA) (Invitrogen, Carlsbad, Calif.), was used to monitor the intracellular generation of ROS induced by hypoxia. After cells were incubated with 10 μmol/l DCF-DA for 30 min as previously described (67), cells were trypsinized, pelleted by centrifugation and resuspended in phosphate-buffered saline for FACS analysis by using a FACS LSRII flow cytometer (Becton Dickinson, San Diego, Calif.). The oxidized form of DCF-DA was excited at 488 nm and detected at 530 nm. Data were analyzed using CellQuest software.” for “hrs.”

[4] = tested on: AML12 hepatocytes; assay: Apoptosis under hypoxia by MTT assay and immunoblot for caspase-cleaved K18Asp237; assay type: cell-based, mouse; conditions: YC-1 pre-treatment (100 μmol/L) for 1 hour
Experimental: Western Blot Analysis and Immunoprecipitation. Cells were treated with actinomycin D and TNFα, hydrogen peroxide (H2O2), hypoxia 1% for 24 hours or pre-treated with N-acetylcysteine (NAC), cobalt chloride (CoCl2), YC-1 (Alexis Biochemicals, San Diego, Calif.), Resveratrol or nicotinamide (NAM) as described in the figure legends. All other chemicals were purchased from Sigma Aldrich (Sigma Aldrich, St. Louis, Mo.). Total proteins (30 μg) were lysed with RIPA lysis buffer and separated by sodium dodecylsulfate-polyacrylamide gel electrophoresis. […]
For the assessment of cell proliferation and survival, a commercially available MTT (3-(4,5-dimethylthiazol-2-yl)-2,5-diphenyltetrazolium bromide) cell proliferation assay (Roche Applied Science, Indianapolis, Ind.) was used according to the manufacturer instructions. Absorbance was measured at 570 nm using a spectrophotometer.
Apoptosis was measured by western blot using Asp237 antibody that recognizes caspase-cleaved keratin18 or by using Caspase-Glo 3/7 Assay following the manusfacturer's instructions (Promega Corporation, Madison, Wis.). […] Caspase-Glo 3/7 reagent was added to each well in a 1:1 ratio and incubated for one hour before measuring luminescence using a LB96B dual injector luminometer (Berthold Technologies, Oak Ridge, Tenn.).

SMILES: [Cl][Co][Cl] [CoCl2, cobalt chloride]
HIF-1α induction (HRE reporter assay and immunoblot) ([1]; CoCl2 (150 μmol/L)): HIF-1α induction was verified
β-catenin/TCF reporter activity after HIF-1α stabilization ([2]; AML12 hepatocytes, CoCl2 (150 μmol/L) under normoxia or hypoxia): significant reduction in TCF signal transduction; also recorded: reduced

SMILES: CC(=O)N[C@@H](CS)C(=O)O [NAC, N-acetylcysteine]
Intracellular ROS levels under hypoxia [3]: decrease intracellular ROS; also recorded: significantly prevents ROS production under hypoxia
β-catenin/TCF signaling (reporter activity) under hypoxia ([2]; AML12 hepatocytes, hypoxia, one hour pre-treatment with NAC (2 mmol/L)): diminish the suppressive effect of hypoxia derived ROS on β-catenin/TCF signal transduction; also recorded: prevents hypoxia-induced inhibition of β-catenin/TCF signaling

Hypoxia-induced suppression of TCF signaling (Sirt1 inhibition) ([2]; hepatocytes under hypoxia, addition of Sirt1 inhibitor): abolished this effect
SMILES: NC(=O)c1cccnc1 [NAM, nicotinamide]

SMILES: OCc1ccc(-c2nn(Cc3ccccc3)c3ccccc23)o1 [YC-1, 3-(5′-hydroxymethyl-2′-furyl)-1-benzylindazole]
HIF-1 signal activity (HRE reporter) under hypoxia ([1]; hypoxia, pre-treatment with YC-1 (100 μmol/L) for 1 hour): significantly reduced HRE activity; also recorded: inhibits the hypoxia-induced increase in HIF-1 signal activity
Apoptosis under hypoxia (MTT assay, caspase-cleaved K18Asp237) [4]: induced significant apoptosis; also recorded: more apoptosis

SMILES: Oc1ccc(C=Cc2cc(O)cc(O)c2)cc1 [resveratrol]
β-catenin/TCF signal transduction (Sirt1 agonist) ([2]; hepatocytes, Sirt1 agonist): significantly inhibited β-catenin/TCF signal transduction
